Earlier results in article PMC7395068, “The evolution of strategies to minimise the risk of human drug-induced liver injury (DILI) in drug discovery and development” (Archives of Toxicology, 2020).
Like-named read-outs stand apart in the source and are kept apart here. Where a SMILES comes first, the peptide text is derived from it. Bridges are numbered along the chain shown (N, C = ends). [ ]: non-standard residue; d: D form. hArg = N=C(N)NCCCC[C@H](N)C(=O)O; Mpa = O=C(O)CCS

Conditions: cited from earlier work
[1] = binary in vivo human DILI call, ref Chen 2016
[2] = human DILI, LTKB DILIrank category, ref Chen 2016

SMILES | DILI +VE (5-8), DILI -VE (-4) [1] | DILI severity category [2] | DILI +VE (5-8), DILI -VE (-4) (in vivo) | DILI severity category (in vivo)
OCC(S)CS (stereo not shown) [dimercaprol] | -VE | vNo-DILI-Concern |  | 
CCOC(=O)C1(c2ccccc2)CCN(CCC(C#N)(c2ccccc2)c2ccccc2)CC1 [diphenoxylate] | -VE | vNo-DILI-Concern |  | 
CC(C)N(CCC(C(N)=O)(c1ccccc1)c1ccccn1)C(C)C (stereo not shown) [disopyramide] | +VE | vLess-DILI-Concern |  | 
CCN1CC(CCN2CCOCC2)C(c2ccccc2)(c2ccccc2)C1=O (stereo not shown) [doxapram] | -VE | vNo-DILI-Concern |  | 
CN(C)CCC=C1c2ccccc2COc2ccccc21 [doxepin] | +VE | vLess-DILI-Concern |  | 
C=C1/C(=C\C=C2/CCC[C@]3(C)[C@@H]([C@H](C)/C=C/[C@H](C)C(C)C)CC[C@@H]23)C[C@@H](O)C[C@@H]1O [doxercalciferol] | -VE | Ambiguous DILI-concern |  | 
CCCCc1oc2ccc(NS(C)(=O)=O)cc2c1C(=O)c1ccc(OCCCN(CCCC)CCCC)cc1 [dronedarone] | +VE | vMost-DILI-Concern |  | 
CNCC[C@H](Oc1cccc2ccccc12)c1cccs1 [duloxetine] |  |  | +VE | vMost-DILI-Concern
C[C@]12C=CC(=O)N[C@@H]1CC[C@@H]1[C@@H]2CC[C@]2(C)[C@@H](C(=O)Nc3cc(C(F)(F)F)ccc3C(F)(F)F)CC[C@@H]12 [dutasteride] | -VE | vNo-DILI-Concern |  | 
O=C(O)CN(CCN(CC(=O)O)CC(=O)O)CC(=O)O [edetic acid] |  |  | -VE | Ambiguous DILI-concern
CN1CCC[C@@H]1Cc1c[nH]c2ccc(CCS(=O)(=O)c3ccccc3)cc12 [eletriptan] | -VE | Ambiguous DILI-concern |  | 
CC1=NN(c2ccc(C)c(C)c2)C(=O)/C1=N\Nc1cccc(-c2cccc(C(=O)O)c2)c1O [eltrombopag olamine] | +VE | vMost-DILI-Concern |  | 
Nc1nc(=O)n([C@@H]2CS[C@H](CO)O2)cc1F [emtricitabine] | -VE | Ambiguous DILI-concern |  | 
CN[C@@H](C)[C@H](O)c1ccccc1 [ephedrine] |  |  | -VE | vNo-DILI-Concern
CNC[C@H](O)c1ccc(O)c(O)c1 [epinephrine] | -VE | vNo-DILI-Concern |  | 
COc1cccc2c1C(=O)c1c(O)c3c(c(O)c1C2=O)C[C@@](O)(C(=O)CO)C[C@@H]3O[C@H]1C[C@H](N)[C@@H](O)[C@H](C)O1 [epirubicin] | -VE | Ambiguous DILI-concern |  | 
COC(=O)[C@@H]1CC2=CC(=O)CC[C@]2(C)[C@@]23O[C@@H]2C[C@@]2(C)[C@@H](CC[C@@]24CCC(=O)O4)[C@H]13 [eplerenone] | -VE | Ambiguous DILI-concern |  | 
CCCCC[C@H](O)/C=C/[C@@H]1[C@H]2C/C(=C/CCCC(=O)O)O[C@H]2C[C@H]1O [epoprostenol] | -VE | Ambiguous DILI-concern |  | 
CCCCc1ncc(/C=C(\Cc2cccs2)C(=O)O)n1Cc1ccc(C(=O)O)cc1 [eprosartan] | -VE | Ambiguous DILI-concern |  | 

SMILES | DILI +VE (5-8), DILI -VE (-4) [1] | DILI severity category [2] | DILI +VE (5-8), DILI -VE (-4) (in vivo) | DILI severity category (in vivo)
N=C(N)NCCCC[C@@H]1NC(=O)CCSSC[C@@H](C(N)=O)NC(=O)[C@@H]2CCCN2C(=O)[C@H](Cc2c[nH]c3ccccc23)NC(=O)[C@H](CC(=O)O)NC(=O)CNC1=O [eptifibatide] ([Mpa][hArg]GDWPC-NH2; disulfide 1-7) |  |  | -VE | vNo-DILI-Concern
C[C@@H](O)[C@H]1C(=O)N2C(C(=O)O)=C(S[C@@H]3CN[C@H](C(=O)Nc4cccc(C(=O)O)c4)C3)[C@H](C)[C@H]12 [ertapenem] | -VE | Ambiguous DILI-concern |  | 
CN(C)CCC[C@@]1(c2ccc(F)cc2)OCc2cc(C#N)ccc21 [escitalopram] |  |  | +VE | vLess-DILI-Concern
COc1ccc2[n-]c([S@@+]([O-])Cc3ncc(C)c(OC)c3C)nc2c1.[Na+] [esomeprazole Sodium] |  |  | +VE | vLess-DILI-Concern
Clc1ccc2c(c1)C(c1ccccc1)=NCc1nncn1-2 [estazolam] | -VE | vNo-DILI-Concern |  | 
C[C@]12CC[C@@H]3c4ccc(OC(=O)N(CCCl)CCCl)cc4CC[C@H]3[C@@H]1CC[C@@H]2O [estramustine] | +VE | vMost-DILI-Concern |  | 
CN1CCN(C(=O)O[C@H]2c3nccnc3C(=O)N2c2ccc(Cl)cn2)CC1 [eszopiclone] | -VE | Ambiguous DILI-concern |  | 
CCCCCCCC/C=C\CCCCCCCC(=O)O.NCCO [ethanolamine oleate] | -VE | vNo-DILI-Concern |  | 
CCc1cc(C(N)=S)ccn1 [ethionamide] | +VE | vLess-DILI-Concern |  | 
CCC1(C)CC(=O)NC1=O (stereo not shown) [ethosuximide] | -VE | Ambiguous DILI-concern |  | 
CCOC(=O)c1cncn1[C@H](C)c1ccccc1 [etomidate] |  |  | -VE | vNo-DILI-Concern
C#C[C@]1(O)CC[C@H]2[C@@H]3CCC4=CC(=O)CC[C@@H]4[C@H]3C(=C)C[C@@]21CC [etonogestrel] | -VE | Ambiguous DILI-concern |  | 
Cc1cc(C#N)cc(C)c1Oc1nc(Nc2ccc(C#N)cc2)nc(N)c1Br [etravirine] | +VE | vMost-DILI-Concern |  | 
CO[C@H]1C[C@@H]2CC[C@@H](C)[C@@](O)(O2)C(=O)C(=O)N2CCCC[C@H]2C(=O)O[C@H]([C@H](C)C[C@@H]2CC[C@@H](OCCO)[C@H](OC)C2)CC(=O)[C@H](C)/C=C(\C)[C@@H](O)[C@@H](OC)C(=O)[C@H](C)C[C@H](C)/C=C/C=C/C=C/1C [everolimus] | -VE | Ambiguous DILI-concern |  | 
C/C(=N\O)C(C)NCC(C)(C)CNC(C)/C(C)=N/O (stereo not shown) [exametazime] | -VE | vNo-DILI-Concern |  | 
C=C1C[C@@H]2[C@H](CC[C@]3(C)C(=O)CC[C@@H]23)[C@@]2(C)C=CC(=O)C=C12 [exemestane] | +VE | vMost-DILI-Concern |  | 
O=C(c1cc(O)c(O)c(O)c1)c1ccc(O)c(O)c1O [exifone] | +VE | vMost-DILI-Concern |  | 
CN1CCC(Nc2ncc3ncnc(Nc4ccc(F)c(Cl)c4)c3n2)CC1 [falnidamol] |  |  | +VE | vMost-DILI-Concern
CC(=O)OCC(CCn1cnc2cnc(N)nc21)COC(C)=O [famciclovir] | -VE | Ambiguous DILI-concern |  | 
